Measured values from patent publication US20260022142A1, “MACROCYCLIC IMMUNOMODULATORS” (Bristol-Myers Squibb Company, priority 2022, published 2026).
Bridge positions count the residues as written; N and C are the ends. Square brackets hold non-standard residues; d marks the D form. Peptide text beside a SMILES is read from it. * marks the point of attachment. ξ: configuration not given here. Bip = N[C@@H](Cc1ccc(-c2ccccc2)cc1)C(=O)O; Phe(3-Me) = Cc1cccc(C[C@H](N)C(=O)O)c1; Cha = N[C@@H](CC1CCCCC1)C(=O)O; Cit = NC(=O)NCCC[C@H](N)C(=O)O; Thr(3ξ) = CC(O)[C@H](N)C(=O)O; Carboxymethyl = O=C(O)C*; Orn = NCCC[C@H](N)C(=O)O; Aun = NCCCCCCCCCCC(=O)O; Dab = NCC[C@H](N)C(=O)O; Dap = NC[C@H](N)C(=O)O; AEEA = NCCOCCOCC(=O)O

What follows are molecules tested against T1, PD-1/PD-L1 interaction (PE-labeled human PD-L1-Ig binding to Jurkat cell line over-expressing human PD-1) (Homo sapiens, UniProt Q15116) (assay: Jurkat-PD-1 Cell Binding High-Content Screening Assay (CBA)). Conditions: Jurkat cell line over-expressing human PD-1; PE-labeled PD-L1-Ig 20 nM final; read-out: Jurkat hPD1-PDL1 IC50.
T1 construct: expressed in transfected cells; host or cells: Jurkat
T1 sequence (Q15116 25-288): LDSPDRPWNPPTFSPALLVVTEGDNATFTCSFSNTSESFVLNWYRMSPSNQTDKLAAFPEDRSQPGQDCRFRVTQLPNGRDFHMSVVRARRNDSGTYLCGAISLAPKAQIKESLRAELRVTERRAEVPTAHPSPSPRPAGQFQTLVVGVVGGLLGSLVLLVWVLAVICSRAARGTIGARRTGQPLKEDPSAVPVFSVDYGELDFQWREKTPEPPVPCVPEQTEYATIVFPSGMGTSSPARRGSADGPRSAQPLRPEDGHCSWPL
Assay type: cell-based
Outline: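 Jurkat-hPD-1 cells, DMEM/10% FCS; cpd 2 h 37° C; PE-PD-L1-Ig 20 nM final, 1 h; 4% PFA fix + Hoechst 33342, 3× dPBS wash; high-content imaging read-out.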
`Cc1cccc(C[C@@H]2NC(=O)[C@H](CC(=O)O)NC(=O)[C@H](Cc3ccc(OCC(=O)O)cc3)NC(=O)[C@H](CN)NC(=O)CSC[C@@H](C(=O)NCCOCCOCC(=O)NCCCCCCCCCCC(=O)O)NC(=O)[C@H](CCCN)NC(=O)[C@H](C(C)C)NC(=O)[C@H](CC3CCCCC3)NC(=O)[C@H](CCN)NC(=O)[C@@H](CC(C)C)NC(=O)[C@H](CCCN)NC(=O)[C@H](C(C)C)NC(=O)[C@H](Cc3ccc(-c4ccccc4)cc3)NC(=O)[C@H](C(C)C)NC2=O)c1` [Compound 2567] ({CH2CO}-[Dap]Y(Carboxymethyl)D[Phe(3-Me)]V[Bip]V[Orn][dL][Dab][Cha]V[Orn]C[AEEA][Aun]-OH; thioether N-14) was tested, and the IC50 was 5.3 nM.
Work on `Cc1cccc(C[C@@H]2NC(=O)[C@H](CC(=O)O)NC(=O)[C@H](Cc3ccc(OCC(=O)O)cc3)NC(=O)[C@H](CN)NC(=O)CSC[C@@H](C(=O)NCCOCCOCC(=O)NCCCCCCCCCCC(=O)O)NC(=O)[C@H](CCCNC(=N)N)NC(=O)[C@H](C(C)C)NC(=O)[C@H](CC3CCCCC3)NC(=O)[C@H](CCN)NC(=O)[C@@H](CC(C)C)NC(=O)[C@H](CCCN)NC(=O)[C@H](C(C)C)NC(=O)[C@H](Cc3ccc(-c4ccccc4)cc3)NC(=O)[C@H](C(C)C)NC2=O)c1` [Compound 2568] ({CH2CO}-[Dap]Y(Carboxymethyl)D[Phe(3-Me)]V[Bip]V[Orn][dL][Dab][Cha]VRC[AEEA][Aun]-OH; thioether N-14) yielded an IC50 of 12.7 nM.
For `Cc1cccc(C[C@@H]2NC(=O)[C@H](CC(=O)O)NC(=O)[C@H](Cc3ccc(OCC(=O)O)cc3)NC(=O)[C@H](CN)NC(=O)CSC[C@@H](C(=O)N[C@@H](CCN)C(=O)NCCOCCOCC(=O)NCCCCCCCCCCC(=O)O)NC(=O)[C@H](C(C)O)NC(=O)[C@H](Cc3ccc(O)cc3)NC(=O)[C@H](CC3CCCCC3)NC(=O)[C@H](CCN)NC(=O)[C@@H](CC(C)C)NC(=O)[C@H](CCCN)NC(=O)[C@H](Cc3ccc(O)cc3)NC(=O)[C@H](Cc3ccc(-c4ccccc4)cc3)NC(=O)[C@H](Cc3ccc(O)cc3)NC2=O)c1` (stereo partly drawn) [Compound 2569] ({CH2CO}-[Dap]Y(Carboxymethyl)D[Phe(3-Me)]Y[Bip]Y[Orn][dL][Dab][Cha]Y[Thr(3ξ)]C[Dab][AEEA][Aun]-OH; thioether N-14), the IC50 was 80.2 nM.
With `Cc1cccc(C[C@@H]2NC(=O)[C@H](CC(=O)O)NC(=O)[C@H](Cc3ccc(OCC(=O)O)cc3)NC(=O)[C@H](CN)NC(=O)CSC[C@@H](C(=O)N[C@@H](CCN)C(=O)NCCOCCOCC(=O)NCCCCCCCCCCC(=O)O)NC(=O)[C@H](CO)NC(=O)[C@H](Cc3ccc(O)cc3)NC(=O)[C@H](CC3CCCCC3)NC(=O)[C@H](CCN)NC(=O)[C@@H](CC(C)C)NC(=O)[C@H](CCCN)NC(=O)[C@H](Cc3ccc(O)cc3)NC(=O)[C@H](Cc3ccc(-c4ccccc4)cc3)NC(=O)[C@H](Cc3ccc(O)cc3)NC2=O)c1` [Compound 2570] ({CH2CO}-[Dap]Y(Carboxymethyl)D[Phe(3-Me)]Y[Bip]Y[Orn][dL][Dab][Cha]YSC[Dab][AEEA][Aun]-OH; thioether N-14) the IC50 was 31.9 nM.
`Cc1cccc(C[C@@H]2NC(=O)[C@H](CC(=O)O)NC(=O)[C@H](Cc3ccc(OCC(=O)O)cc3)NC(=O)[C@H](CN)NC(=O)CSC[C@@H](C(=O)N[C@@H](CCN)C(=O)NCCOCCOCC(=O)NCCCCCCCCCCC(=O)O)NC(=O)[C@H](C(C)O)NC(=O)[C@H](Cc3ccc(O)cc3)NC(=O)[C@H](CC3CCCCC3)NC(=O)[C@H](CCN)NC(=O)[C@@H](CC(C)C)NC(=O)[C@H](CCCN)NC(=O)[C@H](CCCNC(N)=O)NC(=O)[C@H](Cc3ccc(-c4ccccc4)cc3)NC(=O)[C@H](Cc3ccc(O)cc3)NC2=O)c1` (stereo partly drawn) [Compound 2571] ({CH2CO}-[Dap]Y(Carboxymethyl)D[Phe(3-Me)]Y[Bip][Cit][Orn][dL][Dab][Cha]Y[Thr(3ξ)]C[Dab][AEEA][Aun]-OH; thioether N-14) was tested, and the IC50 was 13 nM.
